Assay results taken from EP0546661A1, “Pyrimidine derivatives, method for preparation thereof and pharmaceutical composition having said derivatives as active elements” (JAPAN ENERGY CORPORATION, priority 1991, dated 1993).
pIC50: −log10 of the molar value. Where two headings read alike, the source gives them in different places.

Legend:
male SD rats [1] = assay: Carageenin induced paw edema; type: in vivo; conditions: oral, 1 hour before carageenin, paw volume 3 hours after carageenin, suppression of edema forming rate
Protocol: The test compounds were orally administered to male SD rats, 10 per a group, which were fasted for 24 hours prior to the administration, and after one hour, 0.1 ml of 1% λ-carageenin (Picnin A, Zushi Chemical Co., Ltd.) in saline was injected subcutaneously into the right hind paw. The paw volumes were measured plethysmographically at before and 3 hours after the carageenin administration. Defining the paw volume before the injection of the λ-carageenin as the basal volume, the edema forming rates were calculated by the following equation. Edma Forming Rate(%) =((Paw volume after carageenin injection) - (Paw volume before carageenin injection))/(Paw volume before carageenin injection)x 100 [formula]
Compounds shown in the examples 1 -3 and 5 were tested and diclofenac was used as controls.

male SD rats [2] = assay: Ulcer forming activity; type: in vivo; conditions: oral 10 mg/kg once daily for 5 days; 10 rats per group; stomach ulcers observed after 24 hours fasting
Protocol: The test compounds were orally administered to male SD rats, 10 per a group, at the dosage of 10 mg/kg, once daily for 5 days. After the final administration, rats were fasted for 24 hours and killed by blood releasing under ether anesthesia. The stomachs were taken out and the presence of ulcers were observed.
The same experiments were done with control compounds, E-5110 [Arznein Forsch. Drug Res., 37, 930 (1987), ibid, 37, 936 (1987)] abd diclofenac.

SD rats = assay: Repeated administration toxicity in SD rats; type: in vivo; conditions: 500 mg/kg, repeatedly for 2 weeks
Description: Theophylline is known to have high toxicity and its LD₅₀ is about […] in rat. […]

[3] = Scavenging activity of hydroxy radicals (linolenic acid peroxidation, absorbance at 234 nm); type: biochemical; conditions: test compound concentration 10 µM
Protocol: Scavenging activity of hydroxy radicals were confirmed according to the method of Kharasch et al. [J. Biol. Chem., 260, 106452 (1985)]. The method is as follows. The reactions were started by adding 80 µM iron chloride (II) to the reaction mixture containing test compounds, 30 mM sodium chloride, 1.0 mM linolenic acid, 0.08% rubrol and 100 µM hydrogen peroxide in 1% N,N-dimethylformamide aqueous solution. The time course of peroxidation reaction caused by the action of hydroxy radicals to linolenic acid were monitored by measuring the change of absorbance at 234 nm reflecting the generation of conjugate double bond, and thus the disappearance of the hydroxy radicals by test compounds was measured. The reaction suppression rates of test compounds at their concentration of 10 µM were calculated and the values are listed in Table 5 below.

[4] = tested on: bronchis of Hartle guinea pigs; assay: Dilating action of bronchia by Schultz-dale reaction
Protocol: The specimens were prepared by removing the bronchis of Hartle guinea pigs after sensitizing them with egg white albumin and terminating them by blood releasing under ether anesthesia. Each specimen was hanged down in the Magnus vessel filled with Tyrode's solution (saturated with gas composed of 95% oxygen and 5% carbon dioxide by bubbling at pH 7.4 and at […]). A tension of 1g was loaded to the specimen. After the tension became constant, histamine was added to the final concentration of 2 x 10⁻⁷ g/ml to cause the specimen to contract. The specimen was taken out from the vessel, washed thoroughly and hanged down in a different Magnus vessel filled with egg white albumin, of which final concentration was 1 x 10⁻⁵ g/ml, to cause the specimen to contract. […] As a control, theophylline in 0.1% dimethylsulphoxide aqueous solution was used. The efficacy of the test compounds was described by the suppression rate, in percentage, calculated from the contraction value obtained after the addition of the test compound, defining the contraction value caused by the egg white albumin before the addition of the test compound as 100 %.

male mongolian gerbils = assay: Brain edema (carotid artery occlusion and re-perfusion); type: in vivo; conditions: 2 mg/kg intraperitoneally 15 minutes before occlusion; 3 hours ischemia, 3 hours re-perfusion; 6 per group
Protocol: The total left carotid artery of male mongolian gerbils were separated from surrounding tissues and exposed under the Halosen anesthesia, and when awakened from the anesthesia, the total left carotid arteries were occuled by a aneurysm forming clip. […] The next day, the total left caroted artery of the selected animals, 6 per a group, were re-exposed under the Halosen anesthesia, and when these animals were awakened, the test compounds were administered intraperitoneally (2 mg/kg), followed by occluding the left total carotid artery by a aneurysm forming clip 15 minutes after the administration. After 3 hours ischemla, the clips were removed to re-perfusion. The animals were guillotined at 3 hours after the re-perfusion, immediately followed by removing out the brains, separated their left and right parts at its median line and measured each brain weights. The brains were dried in the dry heat sterilizer at 100°C for 3 days, and measured each brain weights.
Here, for the comparison, experiments with only surgical operations and stitchings were done as a operation only group, and experiments with only surgical operations, clip blockigs and stitchings and without the administration of the test compounds were done as a control group.

rat = conditions: cited from earlier work

| Compound | Ulcer Cases (male SD rats [2]) | Suppression Rate (%) (male SD rats [1]; dose 2 mg/kg) | Suppression Rate (%) [3] | pIC50 ([4]; Cavia porcellus) | also measured |
| --- | --- | --- | --- | --- | --- |
| O=C(O)Cc1ccccc1Nc1c(Cl)cccc1Cl [Diclofenac, reference compound] | 2/10 |  |  |  | Suppression Rate (%) (male SD rats [1]; dose 10 mg/kg): 51% |
| CN1C(=O)C(=Cc2cc(C(C)(C)C)c(O)c(C(C)(C)C)c2)C(=O)N(c2ccccc2)C1=O [Example 1, 1-methyl-3-phenyl-5-(3,5-di-tert-butyl-4-hydroxybenzylidene)-pyrimidine-2,4,6-trione] | 0/10 | 48% | 59% | 4.30 | abnormal symptoms (SD rats): no abnormal symptoms were observed |
| CCN1C(=O)C(=Cc2cc(C(C)(C)C)c(O)c(C(C)(C)C)c2)C(=O)N(CC)C1=O [Example 2, 1,3-diethyl-5-(3,5-di-tert-butyl-4-hydroxybenzylidene)-pyrimidine-2,4,6-trione] |  | 32% | 15% | 4.17 |  |
| CC(C)(C)c1cc(C=C2C(=O)N(C3CCCCC3)C(=O)N(C3CCCCC3)C2=O)cc(C(C)(C)C)c1O [Example 3, 1,3-dicyclohexyl-5-(3,5-di-tert-butyl-4-hydroxybenzylidene)-pyrimidine-2,4,6-trione] | 1/10 | 11% |  | 4.24 |  |
| CCCCN1C(=O)NC(=O)C(=Cc2cc(C(C)(C)C)c(O)c(C(C)(C)C)c2)C1=O [Example 4, 1-butyl-5-(3,5-di-tert-butyl-4-hydroxybenzylidene)-pyrimidine-2,4,6-trione] | 0/10 |  | 18% | 4.37 |  |
| CC(C)(C)c1cc(C=C2C(=O)NC(=O)N(C3CCCCC3)C2=O)cc(C(C)(C)C)c1O [Example 5, 1-cyclohexyl-5-(3,5-di-tert-butyl-4-hydroxybenzylidene)-pyrimidine-2,4,6-trione] | 0/10 | 24% | 31% | 4.23 |  |
| CC(C)(C)c1cc(C=C2C(=O)NC(=O)N(c3ccccc3)C2=O)cc(C(C)(C)C)c1O [Example 6, 1-phenyl-5-(3,5-di-tert-butyl-4-hydroxybeniylidene)-pyrimidine-2,4,6-trione] | 0/10 |  | 25% |  | pIC50 ([4]; suppression of egg white albumin (1 x 10⁻⁵ g/ml) induced contraction of sensitized guinea pig bronchi, read-out: IC50): 4.36 |
| Cc1ccc(N2C(=O)C(=Cc3cc(C(C)(C)C)c(O)c(C(C)(C)C)c3)C(=O)N(c3ccc(C)cc3)C2=O)cc1 [Example 7, 1,3-di-p-tolyl-5-(3,5-di-tert-butyl-4-hydroxybenzylidene)-pyrimidine-2,4,6-trione] |  |  | 60% | 4.41 | water contents, Normal Side (male mongolian gerbils): 79.64 ± 0.09; water contents, Occlusion Side (male mongolian gerbils): 79.94 ± 0.33 |
| CON1CC/C(=C\c2cc(C(C)(C)C)c(O)c(C(C)(C)C)c2)C1=O [Example E-5110, reference compound] | 3/10 |  |  |  |  |
| Cn1c(=O)c2[nH]cnc2n(C)c1=O [Theophylline, reference compound] |  |  |  |  | LD₅₀ (rat): about 300 mixing; pIC50 ([4]; Cavia porcellus, suppression of egg white albumin (1 x 10⁻⁵ g/ml) induced contraction of sensitized guinea pig bronchi, read-out: IC50): 4.46 |
